Measurements: EP2065370A1, “2-cyanobenzene sulfonamides as pesticides” (Bayer CropScience AG, priority 2007, dated 2009)

System: Meloidogyne incognita
Assay: Meloidogyne test (MELGIN spray treatment)
Type: in vivo
Conditions: 20 ppm; sand with egg-larvae suspension and lettuce seeds; 100 % = no galls found
Source text: Meloidogyne-Test (MELGIN Spritzbehandlung)
Zur Herstellung einer zweckmäßigen Wirkstoffzubereitung vermischt man 1 Gewichtsteil Wirkstoff mit der angegebenen Menge Lösungsmittel und verdünnt das Konzentrat mit Wasser auf die gewünschte Konzentration.
Gefäße werden mit Sand, Wirkstofflösung, Meloidogyne incognita-Ei-Larven-Suspension und Salatsamen gefüllt. Die Salatsamen keimen und die Pflänzchen entwickeln sich. An den Wurzeln entwickeln sich die Gallen.
Nach der gewünschten Zeit wird die nematizide Wirkung an Hand der Gallenbildung in % bestimmt. Dabei bedeutet 100 %, dass keine Gallen gefunden wurden; 0 % bedeutet, dass die Zahl der Gallen an den behandelten Pflanzen der der unbehandelten Kontrolle entspricht.
Bei diesem Test zeigen z. B. die folgenden Verbindungen der Herstellungsbeispiele eine Wirkung von ≥ 80 % bei einer Aufwandmenge von 20 ppm: Beispiel Nr. I-1, I-2

Compound | nematizide Wirkung an Hand der Gallenbildung [%]
CN(Cc1ccccn1)S(=O)(=O)c1ccccc1C#N [I-1, 2-Cyano-N-methyl-N-(pyridin-2-ylmethyl)benzolsulfonamid] | ≥ 80
CN(Cc1ccccn1)S(=O)(=O)c1cccc(F)c1C#N [I-2] | ≥ 80
